Results published in US9566290B2, “Boron-containing small molecules” (Anacor Pharmaceuticals, Inc., priority 2005, dated 2017).
Converted amounts (≈) assume the structure as drawn.

Tests used:
[1] = Nail penetration, 14-day dosing of radiolabeled compound (Hui protocol); assay type: in vitro ADME; details: washing, nail samples and supporting bed cotton ball samples; 14-day treatment
Description: Two nail penetration studies were performed based on the protocol in Hui et al., Journal of Pharmaceutical Sciences, 91(1): 189-195 (2002) (“Hui protocol”). The purpose of this study was to determine and compare the penetration and distribution of C10 in vehicle into the human nail plate in vitro relative to 8% ciclopirox w/w in commercial lacquer (Penlac®).
The study was composed of two groups. The compositions (weight %) of the dosage formulations are as follows: […]
Healthy human finger nail plates were collected from adult human cadavers and stored in a closed container at 0-4° C. Before the experiment, the nail plates were gently washed with normal saline to remove any contamination, then re-hydrated by placing them for three hours on a cloth wetted with normal saline. The nail samples were randomly selected into four groups.
Radioactivity of each group is approximately 0.19±0.01 and 0.22±0.03 μCi/10 μL solutions respectively, for ^14C—C10 (group A), and ^14C-ciclopirox (group C).
Surface washing was started in morning 10 min prior to next dosing, the surface of the nail was washed with cotton tips in a cycle, as follows:
A Teflon one-chamber diffusion cell (PermeGear, Inc., Hellertown, Pa.) was used to hold each nail. To approximate physiological conditions, a small cotton ball wetted with 0.1 mL normal saline was placed in the chamber to serve as a nail bed and provide moisture for the nail plate. Every 3 days, 0.1 mL normal saline was injected through the inlet into the chamber to keep the cotton ball wet. The nail plate was placed on a ledge inside the receptor (1.0 cm in diameter and 0.5 cm high). The ventral (inner) surface of the nail was placed face down and rested on the wet cotton ball. The cells were placed on a platform in a large glass holding tank filled with saturated sodium phosphate solution to keep the cells at a constant humidity of 40%.
After completion of the incubation phase, the nail plate was transferred from the diffusion cell to a clean copper nail holder for sampling process. The nail plate was inverted so that the ventral (nail bed) surface now faced up and the dorsal (outer) dosed surfaced faced down. The copper nail holder has an opening as it sits on top of the stage. When the sampling process initiated, the coarse adjustment was adjusted to move the position of the stage until the nail plate was just touching the tip of the cutter. Then the drill was turned on and the fine adjustment was turned to push the stage closer to the drill, removing a nail core sample. After the above process, approximate 0.40-0.50 mm in depth and 7.9 mm in diameter nail pulverized samples were harvested from the center of the ventral (nail bed) surface of the nail.
The powdered nail samples were collected into a glass scintillation vial and weighted. Aliquots of 5.0 mL Packard soluene-350 (Packard Instrument Company, Meriden, Conn.) was added to the scintillation vial to dissolve the powder. The upper part, the intermediate and dorsal layers of the center of the nail, including the area of application of the dose was cut in the same diameter as the sampled area and was then placed into a glass scintillation vial with 5.0 mL packard soluene-350. The rest of the nail was also placed in a glass scintillation vial with 5.0 mL packard soluene-350.
All radioactivity measurements were conducted with a Model 1500 Liquid Scintillation Counter (Packard Instrument Company, Downer Grove, Ill.). The counter was audited for accuracy using sealed samples of quenched and unquenched standards as detailed by the instrument manual. The ^14C counting efficiency is equal to or greater than 95%. All nail samples pre-treated with packard soluene-350 were incubated at 40° C. for 48 hours followed by the addition of 10 mL scintillation cocktail (HIONIC-FLUOR, Packard Instrument Company, Meriden, Conn.). […]

[2] = assay type: in vitro ADME, human
Description: C10, 5-fluoro-1,3-dihydro-1-phenyl-2,1-benzoxaborole, C1, and 5-fluoro-1,3-dihydro-1-(3-hydroxymethylphenyl)-2,1-benzoxaborole, formulated at 10% w/v in ethanol, were tested. A single aliquot (10 μl) of each formulation was dosed to the top of human nail plates using the nail penetration procedure described below, and allowed to stand for 3-days. The dosed area was washed, and then the cotton ball bed supporting the nail and the nail samples were collected at the end of the incubation period, stored at 4° C. and analyzed for drug using LC/MS/MS.
Details of the nail incubation have been previously described^9, 10. […] The supporting cotton ball under the nail was wetted by normal saline providing moisture for the nail plate, and the degree of hydration was monitored and controlled during the experiment. […]
LC/MS/MS (API3000, Applied Biosystems, Foster City, Calif.) was used to quantitate the amounts of non-radiolabeled oxaboroles, C10, 5-fluoro-1,3-dihydro-1-phenyl-2,1-benzoxaborole, C1, and 5-fluoro-1,3-dihydro-1-(3-hydroxymethylphenyl)-2,1-benzoxaborole in samples from the nail penetration studies. […] After centrifugation, the filtrate from the cotton ball samples was transferred to autosampler vials and analyzed by LC/MS/MS. […]

[3] = system: Saccharomyces cerevisiae strain ATCC 201388; experiment: MIC (NCCLS M27, YPD or synthetic defined media), haploid parental strain; assay type: cell-based; details: Saccharomyces cerevisiae, ATCC201388, Table 2; ATCC201388; read-out: MIC
Description: (§1) The haploid Saccharomyces cerevisiae strain ATCC 201388 was used in the selection of C10 resistant mutants. Spontaneous and EMS-induced resistant mutants were isolated from YPD agar plates containing 4×, 8×, 16×MIC of C10. All minimal inhibitory concentrations (MIC) were determined using NCCLS protocol M27 with the exception of using YPD or synthetic defined media. All yeast and molecular genetic manipulations were essentially performed as described by Guthrie C., et al., Methods in Enzymology, 350: Part B, (2002).
(§2) The minimal inhibitory concentration (MIC) was essentially performed following the NCCLS guidelines outlined in the M27 protocol with the exception of using YPD or synthetic defined media (SDM).

[4] = system: S. cerevisiae C10 resistant mutants (CDC60 editing domain mutations); experiment: MIC (NCCLS M27), spontaneous and EMS induced C10 resistant mutants; assay type: cell-based, Saccharomyces cerevisiae; details: for MIC: Saccharomyces cerevisiae, Table 2
Description: as §1
Resistant mutants appeared after 2 d incubation at 30° C. Frequency of resistance was determined by dividing the number of resistant mutants by the total number of cells plated as determined by plating dilutions of the overnight culture on YPD plates.
A 2.5 mL of the overnight culture, which was grown in YPD media, was centrifuged at 700×g for 5 minutes. The cell pellet was resuspended in 10 mL 50 mM potassium phosphate buffer, pH 7.0. The cell suspension was centrifuged again and the cell pellet was resuspended in phosphate buffer to obtain a cell density of 5×10^7 cells/mL as determined by counting the cells using a Petroff Hausser Counting Chamber (Horsham, Pa. USA). The cell suspension was shaken with 300 μL of EMS (Alfa Aesar, Ward Hill, Mass., USA) for 30 min. at 30° C. The mutagenesis was stopped by adding 10% (w/v) sodium thiosulfate (Sigma-Aldrich, St. Louis, Mo., USA), and the cells were pelleted by centrifugation at 700×g for 5 min. and resuspended in 1 mL sterile H2O. This was repeated once more before the cells were plated on YPD agar plates containing 1.6 μg/mL of C10.
as §2

[5] = Water solubility (table of physicochemical properties)
[6] = system: bacterial isoleucyl-tRNA synthetases; details: cited from earlier work

Which “Cumulative radioactivity recoveries of carbon-14” value [1] does the source give for `Cc1cc(C2CCCCC2)n(O)c(=O)c1` [ciclopirox] here?
The value was 89±1.56% of applied dose.

And the “penetration of the nail plate, in words” value [2]?
The value was “penetrates the nail plate poorly”.

What about the MIC [3] of the same compound?
Its MIC is 0.5 mg/L (≈ 2.41 µM).

What about the “resistance of C10 resistant mutants to other antifungals, in words” value [4] of the same compound?
Its value is “not resistant”.

What about the MIC ([4]; C10 resistant mutant (C)) of the same compound?
The MIC was 0.5 mg/L (≈ 2.41 µM).

What about the MIC ([4]; C10 resistant mutant (G)) of the same compound?
The MIC was 0.5 mg/L (≈ 2.41 µM).

What about the MIC ([4]; C10 resistant mutant (H)) of the same compound?
Its MIC is 0.5 mg/L (≈ 2.41 µM).

With `OB1OCc2cc(Cl)ccc21` [C1, 5-chlorobenzo[c][1,2]oxaborol-1(3H)-ol] as the compound, how does the solubility [5] read?
Its solubility is over 0.1 mg/mL.

With `Fc1ccc2c(c1)COB2c1ccccc1` [Compound 3, 5-fluoro-1,3-dihydro-1-phenyl-2,1-benzoxaborole] as the compound, how does the “penetration of the nail plate, in words” value [2] read?
The value was “penetrates the nail plate poorly”.

For `C/C(=C\C(=O)OCCCCCCCCC(=O)O)C[C@@H]1OC[C@H](C[C@@H]2O[C@H]2[C@@H](C)[C@H](C)O)[C@@H](O)[C@H]1O` [Mupirocin, mupirocin], which “activity against the human homolog versus bacterial isoleucyl-tRNA synthetases (times less active)” value [6] is on record?
The value was “more than 1,000 times”.
